Consider 5 molecules from patent US7495007B2, “Spiroindolinone derivatives” (Hoffmann-La Roche Inc., priority 2006, dated 2009).

Sequence of interaction between p53 and MDM2 proteins (recombinant GST-tagged MDM2, p53 peptide) (Q00987 whole entry): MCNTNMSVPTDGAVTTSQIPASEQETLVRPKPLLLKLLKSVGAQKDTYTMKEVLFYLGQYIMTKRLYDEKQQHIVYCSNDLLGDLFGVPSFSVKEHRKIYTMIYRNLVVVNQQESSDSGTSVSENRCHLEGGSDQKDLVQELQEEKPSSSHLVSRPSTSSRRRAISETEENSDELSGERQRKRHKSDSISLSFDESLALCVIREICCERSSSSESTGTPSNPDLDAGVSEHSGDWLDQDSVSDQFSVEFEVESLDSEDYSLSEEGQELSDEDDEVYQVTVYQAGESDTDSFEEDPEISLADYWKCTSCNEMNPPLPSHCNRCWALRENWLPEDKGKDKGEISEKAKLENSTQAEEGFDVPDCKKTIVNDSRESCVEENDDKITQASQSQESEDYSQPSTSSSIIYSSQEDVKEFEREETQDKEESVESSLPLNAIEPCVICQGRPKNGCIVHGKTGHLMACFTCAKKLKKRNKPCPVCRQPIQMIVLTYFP

The target of the test is interaction between p53 and MDM2 proteins (recombinant GST-tagged MDM2, p53 peptide) (Homo sapiens, UniProt Q00987). The test is described as follows: HTRF assay of inhibition of the p53-MDM2 interaction (GST-MDM2 binding to biotinylated p53 peptide). To be noted: 0.02% BSA. Here is the method:
The ability of the compounds to inhibit the interaction between p53 and MDM2 proteins was measured by an HTRF (homogeneous time-resolved fluorescence) assay in which recombinant GST-tagged MDM2 binds to a peptide that resembles the MDM2-interacting region of p53 (Lane et al.). Binding of GST-MDM2 protein and p53-peptide (biotinylated on its N-terminal end) is registered by the FRET (fluorescence resonance energy transfer) between Europium (Eu)-labeled anti-GST antibody and streptavidin-conjugated Allophycocyanin (APC).
Test is performed in black flat-bottom 384-well plates (Costar) in a total volume of 40 uL containing: 90 nM biotinylate peptide, 160 ng/ml GST-MDM2, 20 nM streptavidin-APC (PerkinElmerWallac), 2 nM Eu-labeled anti-GST-antibody (PerkinElmerWallac), 0.2% bovine serum albumin (BSA), 1 mM dithiothreitol (DTT) and 20 mM Tris-borate saline (TBS) buffer as follows: Add 10 uL of GST-MDM2 (640 ng/ml working solution) in reaction buffer to each well. Add 10 uL diluted compounds (1:5 dilution in reaction buffer) to each well, mix by shaking. Add 20 uL biotinylated p53 peptide (180 nM working solution) in reaction buffer to each well and mix on shaker. Incubate at 37° C. for 1 h. Add 20 uL streptavidin-APC and Eu-anti-GST antibody mixture (6 nM Eu-anti-GST and 60 nM streptavidin-APC working solution) in TBS buffer with 0.2% BSA, shake at room temperature for 30 minutes and read using a TRF-capable plate reader at 665 and 615 nm (Victor 5, Perkin ElmerWallac). If not specified, the reagents were purchased from Sigma Chemical Co.
Background: Time-resolved FRET reads energy transfer from a long-lived donor to a nearby acceptor.
For orientation: IC50 means the midpoint of a concentration-inhibition curve. For `CCN1C(=O)C[C@@H](c2cccc(Cl)c2)[C@]2(C(=O)Nc3cc(Cl)ccc32)[C@H]1c1ccccc1C` (racemic) [Example 26b, (2′R,3R,4′S)-6-chloro-4′-(3-chlorophenyl)-1′-ethyl-2′-(2-methylphenyl)spiro[3H-indole-3,3′-piperidine]-2,6′(1H)-dione], the IC50 was determined as 490 nM.

For `Cc1ccccc1[C@H]1N(CC(=O)O)C(=O)C[C@@H](c2cccc(Cl)c2)[C@]12C(=O)Nc1cc(Cl)ccc12` (racemic) [Example 31, (2′R,3R,4′S)-6-chloro-4′-(3-chlorophenyl)-1′-[(hydroxycarbonyl)-methyl]-2′-(2-methylphenyl)spiro[3H-indole-3,3′-piperidine]-2,6′(1H)-dione], the IC50 is 372 nM.

In the case of `C[C@@H]1C(=O)N[C@H](c2cccc(Cl)c2)[C@@]2(C(=O)Nc3cc(Cl)ccc32)[C@@H]1c1cccc(Cl)c1` (racemic) [Example 20, (2′R,3R,4′S,5′S)-6-chloro-2′,4′-bis(3-chlorophenyl)-5′-methylspiro[3H-indole-3,3′-piperidine]-2,6′(1H)-dione], the IC50 amounted to 1810 nM.

`O=C1C[C@@H](c2cccc(Cl)c2)[C@]2(C(=O)Nc3cc(Cl)ccc32)[C@@H](c2ccccc2)N1` (racemic) [Example 14b, (2′R,3R,4′S)-6-chloro-4′-(3-chlorophenyl)-2′-phenylspiro[3H-indole-3,3′-piperidine]-2,6′(1H)-dione]: the IC50 was determined as 440 nM.

For `O=C1C[C@H](C2CCCC2)[C@@]2(C(=O)Nc3cc(Cl)ccc32)[C@H](c2cccc(Cl)c2)N1` (racemic) [Example 5d, (2′S,3S,4′R)-6-chloro-2′-(3-chlorophenyl)-4′-cyclopentylspiro[3H-indole-3,3′-piperidine]-2,6′(1H)-dione], the IC50 was found to be 2430 nM.
